Measured values: patent US8278464B2, “Insecticides” (Syngenta Crop Protection LLC, priority 2006, dated 2012)

melting point [°C] | SMILES
216 to 219 | Cc1cc(C#N)cc(C(=O)NC2(C)CS(=O)(=O)C2)c1NC(=O)c1cc(OCC(F)(F)F)nn1-c1ncccc1Cl
> 250 | Cc1cc(Cl)cc(C(=O)NC2(C)CS(=O)(=O)C2)c1NC(=O)c1cc(OCC(F)(F)F)nn1-c1ncccc1Cl
234 to 236 | CCC1(NC(=O)c2cc(Cl)cc(C)c2NC(=O)c2cc(C(F)(F)F)nn2-c2ncccc2Cl)CS(=O)(=O)C1
151 to 155 | Cc1cc(Cl)cc(C(=O)NC2CS(=O)(=O)C2)c1NC(=O)c1cc(C(F)F)nn1-c1ncccc1Cl
170 to 173 | Cc1cc(Cl)cc(C(=O)NC2(C)CS(=O)(=O)C2)c1NC(=O)c1cc(C(F)F)nn1-c1ncccc1Cl
158 to 160 | Cc1cc(C#N)cc(C(=O)NC2CS(=O)(=O)C2)c1NC(=O)c1cc(C(F)F)nn1-c1ncccc1Cl
238 to 241 | Cc1cc(C#N)cc(C(=O)NC2(C)CS(=O)(=O)C2)c1NC(=O)c1cc(C(F)F)nn1-c1ncccc1Cl
191 to 193 | Cc1cc(Cl)cc(C(=O)NC2(C)CS(=O)(=O)C2)c1NC(=O)c1cc(Br)nn1-c1ncccc1Cl
223 to 225 | Cc1cc(C#N)cc(C(=O)NC2(C)C[S+]([O-])C2)c1NC(=O)c1cc(OCC(F)(F)F)nn1-c1ncccc1Cl (stereo not drawn)
220 to 222 | Cc1cc(Cl)cc(C(=O)NC2(C)C[S+]([O-])C2)c1NC(=O)c1cc(OCC(F)(F)F)nn1-c1ncccc1Cl (stereo not drawn)
171 to 173 | Cc1cc(Cl)cc(C(=O)NC2C[S+]([O-])C2)c1NC(=O)c1cc(C(F)F)nn1-c1ncccc1Cl (stereo not drawn)
169 to 173 | Cc1cc(Cl)cc(C(=O)NC2(C)C[S+]([O-])C2)c1NC(=O)c1cc(C(F)F)nn1-c1ncccc1Cl (stereo not drawn)
230 to 233 | Cc1cc(C#N)cc(C(=O)NC2C[S+]([O-])C2)c1NC(=O)c1cc(C(F)F)nn1-c1ncccc1Cl (stereo not drawn)
235 to 237 | Cc1cc(C#N)cc(C(=O)NC2(C)C[S+]([O-])C2)c1NC(=O)c1cc(C(F)F)nn1-c1ncccc1Cl (stereo not drawn)
244 to 247 | Cc1cc(Cl)cc(C(=O)NC2(C)C[S+]([O-])C2)c1NC(=O)c1cc(Br)nn1-c1ncccc1Cl (stereo not drawn)
